In PMC5104425, “A Novel Selective Inhibitor of Delta-5 Desaturase Lowers Insulin Resistance and Reduces Body Weight in Diet-Induced Obese C57BL/6J Mice” (PLoS ONE, 2016):

Assays:
Assay type in all cases: in vivo, C57BL/6J mice
[1] = system: DIO mice; test: Oral glucose tolerance test and HOMA-IR after 6-week treatment in DIO mice
Procedure: Mice were fed a high-fat diet (HFD) that has 60% kcal from fat and contains 0.09% (w/w) AA (D12492; Research diets, Inc., see S1 Table for fatty acid profile) from 5 weeks of age, and they were divided into 5 groups (7 animals per group) at 11 weeks of age based on BW and daily food intake. In this experiment, 30 mg/kg sibutramine, a […], was used as a positive control for anti-obesity effects. Mice were orally administered compound-326 at doses of 0.1, 1, and 10 mg/kg, sibutramine at a dose of 30 mg/kg, or vehicle for 6 weeks. After 6 weeks, blood concentrations of DGLA and AA under non-fasting condition were evaluated as pharmacodynamics (PD) markers, and oral glucose tolerance test (OGTT) was performed.
On the last day of the experiment, mice were given an oral glucose load (2 g/kg) after overnight fasting. Blood samples were collected at specified time points of 0 (pre-glucose/fasting glucose levels), 10, 30, 60, and 120 min post glucose load for the determination of plasma glucose as well as insulin levels. Plasma glucose was enzymatically measured with auto-analyzer 7180 (Hitachi High-Technologies Corporation, Tokyo, Japan). Plasma insulin was measured with mouse insulin ELISA kit (Shibayagi, Gunma, Japan). The total area under the glucose curve was determined from time 0 to 120 min (AUC0–120 min) after glucose administration. Homeostasis model assessment-insulin […] (HOMA-IR) was calculated using the formula: [(fasted PG: mg/dL)×(fasted insulin; μU/mL)[…]/405] [28].

[2] = system: epididymal fat of DIO mice; test: Satellite DIO mice, day 32: epididymal fat gene expression and BW; details: 10 mg/kg, 32 days
From the text: Total RNA was extracted and purified using RNeasy Mini Kit (QIAGEN, USA). First-strand cDNA was synthesized using High Capacity cDNA Reverse Transcription Kits (Thermo Fisher, USA). The mRNA levels were quantified by an ABI Prism 7900 TaqMan PCR system (Thermo Fisher, USA) according to the manufacturer’s instruction using TaqMan® Universal PCR Mastermix with the primer-probe sets of TaqMan Gene Expression Assays (Thermo Fisher, USA) for the following genes: Ccl2 (chemokine (C-C motif) ligand 2; Mm99999056_m1), Cd68 (CD68 antigen; Mm03047343_m1), Adgre1 (adhesion G protein-coupled receptor E1; Mm00802529_m1), Tnf (tumor necrosis factor; Mm00443258_m1), Il6 (interleukin 6; Mm99999064), Lep (leptin; Mm00434759_m1), Adipoq (adiponectin; Mm00456425_m1), Fads2 ([…]; Mm00517221_m1), Fads1 ([…]; Mm00507605_m1), Ucp1 (uncoupling protein 1; Mm00494069_m1), Elovl3 (elongation of very long chain fatty acids 3; Mm00468164_m1), Cidea (cell death-inducing DNA fragmentation factor, alpha subunit-like effector A; Mm00432554_m1), Otop1 (otopetrin 1; Mm00554705_m1), and Rplp0 (ribosomal protein, large, P0; forward; 5'-[…]-3', reverse; 5'-[…]-3', probe (VIC-5'→3'-TAMRA); 5'-[…]-3'). The Rplp0 mRNA level was used as a reference and relative transcript levels were calculated with the comparative Ct method (2^-ΔΔCT) (Applied Bio-systems).
In 6 weeks administration study of compound-326 (10 mg/kg), satellite animals were prepared to evaluate the gene expression levels in epididymal fat at the intermediate point (day 32). Mice fed a HFD (D12079B; Research diets, Inc.) from 5 weeks of age were divided into 2 groups at the age of 8 weeks (11 animals per group), and were administered 10 mg/kg compound-326 or vehicle for 32 days. After the treatment period, mice were sacrificed and epididymal fat were harvested for mRNA analysis. […] (B) RT-qPCR was performed in epididymal fat tissue after 32 days treatment. Data are expressed as mean ± SE (n=11). *p≤ 0.05 vs. DIO vehicle by Aspin-Welch test. ¶¶p≤ 0.01 vs. DIO vehicle by Student's t-test.

[3] = system: DIO mice; test: 6-week treatment of HFD (D12079B)-fed DIO mice: BW and blood/tissue fatty acids
Procedure: Fatty acids were extracted from blood and tissues by adding hexane-isopropanol-butylated hydroxytoluene (60:40:0.01, v/v/w). Samples were vortexed for 30 min. The hexane phase was removed and evaporated to dryness under nitrogen stream and vacuum. Dried samples were dissolved in methanol and analyzed by HPLC.
Mice fed a HFD that has 41% kcal from fat and contains no AA (D12079B; Research diets, Inc.) from 5 weeks of age were divided into 2 groups at the age of 8 weeks (8 animals per group), and were administered 10 mg/kg compound-326 or vehicle for 6 weeks. After the treatment period, mice were sacrificed and epididymal and subcutaneous fats were harvested for mRNA analysis. Nine animals maintained on a standard chow (CE2, CLEA Japan, Osaka) were used as control.

[4] = 10 mg/kg, after 6-week treatment

With O=C1Cc2c(nc(OCC(F)(F)C(F)(F)F)n(-c3ccc(OCC(F)(F)F)cc3)c2=O)N1 [Compound-326, 2-(2,2,3,3,3-Pentafluoropropoxy)-3-[4-(2,2,2-trifluoroethoxy)phenyl]-5,7-dihydro-3H-pyrrolo[2,3-d]pyrimidine-4,6-dione] the HOMA-IR ([1]; compound-326 0.1, 1, 10 mg/kg, after 6-week treatment, dose-dependent) was “decreased”, the “insulin levels (OGTT)” value ([1]; compound-326, after 6-week treatment) was “no change” and the “glucose tolerability and insulin sensitivity” value ([1]; observed from dose of 1 mg/kg without a significant decrease in BW) was “improvement”. The “Adgre1 gene expression level in epididymal fat” value [2] was “significantly decreased”, the BW [2] was “no significant BW loss” and the “Ccl2 gene expression level in epididymal fat” value [2] was “significantly decreased”. The “Cd68 gene expression level in epididymal fat” value [2] was “significantly decreased”, the “Il6 gene expression level in epididymal fat” value [2] was “significantly decreased” and the “AA to DGLA ratio in epididymal fat” value ([3]; 10 mg/kg p.o., 6 weeks) was “significantly decreased”. The “AA to DGLA ratio in the blood” value ([3]; 10 mg/kg p.o., 6 weeks) was “decrease”, the “AA to DGLA ratio in the liver” value ([3]; 10 mg/kg p.o., 6 weeks) was “significantly decreased” and the “n-3 PUFA (EPA and DHA) in blood, liver, and adipose tissue” value ([3]; 10 mg/kg p.o., 6 weeks) was “significantly decreased”. The BW ([3]; 10 mg/kg p.o., 6 weeks, vs vehicle) was “significantly decreased”, the “AA in the blood as well as liver” value [3, 4] was “decrease” and the “DGLA in the blood as well as liver” value [3, 4] was “increase”.
